Key:
Rat [1] = assay: concentration in plasma after dosing; conditions: 2 h; dosed: Wyeth-14643; 1.0 mg/kg; oral; Male; Sprague-Dawley
Rat [2] = assay: concentration in plasma after dosing; conditions: 4 h; dosed: Wyeth-14643; 5.0 mg/kg; oral; Male; Sprague-Dawley
Rat [3] = assay: concentration in liver after dosing; conditions: 10 min; dosed: Bis 2-Chloroethoxy Methane; 20 mg/kg; iv; Male; F344
Rat [4] = assay: concentration in heart after dosing; conditions: 5 h; dosed: Bis 2-Chloroethoxy Methane; 20 mg/kg; iv; Female; F344
Rat [5] = assay: concentration in heart after dosing; conditions: 3 h; dosed: Bis 2-Chloroethoxy Methane; 20 mg/kg; iv; Male; F344
Rat [6] = assay: concentration in liver after dosing; conditions: 10 min; dosed: Bis 2-Chloroethoxy Methane; 20 mg/kg; iv; Male; F344; remark: listed apart in the source
Rat [7] = assay: concentration in heart after dosing; conditions: 40 min; dosed: Bis 2-Chloroethoxy Methane; 20 mg/kg; iv; Male; F344
Rat [8] = assay: concentration in liver after dosing; conditions: 5 h; dosed: Bis 2-Chloroethoxy Methane; 20 mg/kg; iv; Male; F344
Rat [9] = assay: concentration in plasma after dosing; conditions: 10 min; dosed: Bis 2-Chloroethoxy Methane; 20 mg/kg; iv; Female; F344
Rat [10] = assay: concentration in thymus after dosing; conditions: 7 h; dosed: Bis 2-Chloroethoxy Methane; 20 mg/kg; iv; Male; F344
Rat [11] = assay: concentration in thymus after dosing; conditions: 3 h; dosed: Bis 2-Chloroethoxy Methane; 20 mg/kg; iv; Male; F344
Rat [12] = assay: concentration in plasma after dosing; conditions: 1 h; dosed: Bis 2-Chloroethoxy Methane; 40 mg/kg; iv; Male; Harlan Sprague Dawley
Rat [13] = assay: concentration in brain after dosing; conditions: 3 h; dosed: Fluorotelomer alcohol 8+2; 24 mg/kg; oral; Male; Harlan Sprague Dawley
Rat [14] = assay: concentration in liver after dosing; conditions: 6 h; dosed: Fluorotelomer alcohol 8+2; 24 mg/kg; oral; Male; Harlan Sprague Dawley
Rat [15] = assay: concentration in liver after dosing; conditions: 3 h; dosed: Fluorotelomer alcohol 8+2; 24 mg/kg; oral; Male; Harlan Sprague Dawley
Rat [16] = assay: concentration in liver after dosing; conditions: 1 h; dosed: Fluorotelomer alcohol 8+2; 24 mg/kg; oral; Male; Harlan Sprague Dawley
Rat [17] = assay: concentration in liver after dosing; conditions: 3 h; dosed: Fluorotelomer alcohol 8+2; 80 mg/kg; oral; Female; Harlan Sprague Dawley
Rat [18] = assay: concentration in brain after dosing; conditions: 1 h; dosed: Fluorotelomer alcohol 8+2; 24 mg/kg; oral; Male; Harlan Sprague Dawley
Rat [19] = assay: concentration in plasma after dosing; conditions: dosed: Fluorotelomer alcohol 8+2, 12 mg/kg, oral, Male, Harlan Sprague Dawley
Rat [20] = assay: concentration in kidney after dosing; conditions: 1 h; dosed: Fluorotelomer alcohol 8+2; 80 mg/kg; oral; Female; Harlan Sprague Dawley
Rat [21] = assay: concentration in plasma after dosing; conditions: dosed: Fluorotelomer alcohol 8+2, 40 mg/kg, iv, Male, F344
Rat [22] = assay: concentration in plasma after dosing; conditions: dosed: Fluorotelomer alcohol 8+2, 12 mg/kg, iv, Male, F344
Rat [23] = assay: concentration in plasma after dosing; conditions: 4 h; dosed: Di-n-butyl phthalate; 20 mg/kg; iv; Male; Sprague-Dawley
Rat [24] = assay: concentration in plasma after dosing; conditions: 0.25 h; dosed: Di-n-butyl phthalate; 100 mg/kg; oral; Male; Sprague-Dawley
Rat [25] = assay: concentration in plasma after dosing; conditions: 3 h; dosed: Di-n-butyl phthalate; 100 mg/kg; oral; Male; Sprague-Dawley
Rat [26] = assay: concentration in plasma after dosing; conditions: 3 h; dosed: Di-n-butyl phthalate; 50 mg/kg; oral; Male; Sprague-Dawley
Rat [27] = assay: concentration in plasma after dosing; conditions: 2 h; dosed: Di-n-butyl phthalate; 20 mg/kg; iv; Male; Sprague-Dawley
Rat [28] = assay: concentration in liver after dosing; conditions: 1 h; dosed: Perfluorodecanoic acid; 10 mg/kg; oral; Male; Harlan Sprague Dawley
Rat [29] = assay: concentration in liver after dosing; conditions: 24 h; dosed: Perfluorodecanoic acid; 10 mg/kg; oral; Female; Harlan Sprague Dawley
Rat [30] = assay: concentration in plasma after dosing; conditions: dosed: Perfluorodecanoic acid, 2 mg/kg, iv, Male, F344
Rat [31] = assay: concentration in kidney after dosing; conditions: 3360 h; dosed: Perfluorodecanoic acid; 10 mg/kg; oral; Female; Harlan Sprague Dawley
Rat [32] = assay: concentration in plasma after dosing; conditions: dosed: Perfluorodecanoic acid, 2 mg/kg, iv, Male, F344; remark: listed apart in the source
Rat [33] = assay: concentration in heart after dosing; conditions: 40 min; dosed: Thiodiglycolic Acid; 20 mg/kg; iv; Female; Harlan Sprague Dawley
Rat [34] = assay: concentration in liver after dosing; conditions: 3 h; dosed: Thiodiglycolic Acid; 20 mg/kg; iv; Male; Harlan Sprague Dawley
Rat [35] = assay: concentration in liver after dosing; conditions: 2 h; dosed: Thiodiglycolic Acid; 20 mg/kg; iv; Female; Harlan Sprague Dawley
Rat [36] = assay: concentration in heart after dosing; conditions: 20 min; dosed: Thiodiglycolic Acid; 20 mg/kg; iv; Female; F344
Rat [37] = assay: concentration in thymus after dosing; conditions: 1 h; dosed: Thiodiglycolic Acid; 20 mg/kg; iv; Female; Harlan Sprague Dawley
Rat [38] = assay: concentration in thymus after dosing; conditions: 3 h; dosed: Thiodiglycolic Acid; 20 mg/kg; iv; Female; Harlan Sprague Dawley
Rat [39] = assay: concentration in plasma after dosing; conditions: 10 h; dosed: Thiodiglycolic Acid; 20 mg/kg; iv; Male; F344

Cc1cccc(Nc2cc(Cl)nc(SCC(=O)O)n2)c1C
Conditions	concentration in plasma [µg/mL]
Rat [1]	0.266
Rat [2]	1.2

ClCCOCOCCCl [Bis 2-Chloroethoxy Methane]
Conditions	concentration in heart [ng/g]	concentration in liver [ng/g]	concentration in plasma [µg/mL]	concentration in thymus [ng/g]
Rat [3]	–	2500	–	–
Rat [4]	27.4	–	–	–
Rat [5]	179	–	–	–
Rat [6]	–	5360	–	–
Rat [7]	7270	–	–	–
Rat [8]	–	33.4	–	–
Rat [9]	–	–	9.47	–
Rat [10]	–	–	–	15.2
Rat [11]	–	–	–	394
Rat [12]	–	–	3.1	–

OCCC(F)(F)C(F)(F)C(F)(F)C(F)(F)C(F)(F)C(F)(F)C(F)(F)C(F)(F)F [Fluorotelomer alcohol 8+2]
Conditions	concentration in brain [ng/g]	concentration in kidney [ng/g]	concentration in liver [ng/g]
Rat [13]	1780	–	–
Rat [14]	–	–	1250
Rat [15]	–	–	3080
Rat [16]	–	–	4670
Rat [17]	–	–	8140
Rat [18]	2520	–	–
Rat [20]	–	1950	–

concentration in plasma [µg/mL]
Conditions	1 h	3 h	5 min	6 h
Rat [19]	–	0.196	0.396	–
Rat [21]	–	0.516	22.4	–
Rat [22]	0.619	–	–	0.0385

CCCCOC(=O)c1ccccc1C(=O)O [Mono-n-butyl phthalate]
Conditions	concentration in plasma [µg/mL]
Rat [23]	0.726
Rat [24]	31.7
Rat [25]	6.97
Rat [26]	1.18
Rat [27]	1.67

O=C(O)C(F)(F)C(F)(F)C(F)(F)C(F)(F)C(F)(F)C(F)(F)C(F)(F)C(F)(F)C(F)(F)F [Perfluorodecanoic acid]
Conditions	concentration in kidney [ng/g]	concentration in liver [ng/g]
Rat [28]	–	58100
Rat [29]	–	139000
Rat [31]	2580	–

concentration in plasma [µg/mL]
Conditions	5 min	6 h	192 h	864 h	2520 h
Rat [30]	7.33	–	3.13	–	0.2
Rat [32]	–	6.49	–	2.79	–

O=C(O)CSCC(=O)O [Thiodiglycolic Acid]
Conditions	concentration in heart [ng/g]	concentration in liver [ng/g]	concentration in plasma [µg/mL]	concentration in thymus [ng/g]
Rat [33]	3040	–	–	–
Rat [34]	–	59900	–	–
Rat [35]	–	39600	–	–
Rat [36]	3820	–	–	–
Rat [37]	–	–	–	3010
Rat [38]	–	–	–	1030
Rat [39]	–	–	0.304	–
